Assay results: patent US20120225777A1, “Azolylmethyloxiranes, Their Use for Controlling Phytopathogenic Fungi and Compositions Comprising Them” (BASF SE, priority 2006, published 2012)

Assays:
[1] = system: Pyrenophora [syn. Drechslera] teres; assay: Activity against net blotch of barley caused by Pyrenophora teres, 1 day protective application (Pymte P1), greenhouse; format: in vivo, Pyrenophora teres on barley; settings: Comparative Example 2, Table 10, barley seedlings, 6 days, untreated 90
Method: (§1) The active compounds were prepared separately or jointly as a stock solution comprising 25 mg of active compound which was made up to 10 ml using a mixture of acetone and/or DMSO and the emulsifier Wettol EM 31 (wetting agent having emulsifying and dispersing action based on ethoxylated alkylphenols) in a volume ratio of solvent/emulsifier of 99:1. The mixture was then made up to 100 ml with water. This stock solution was diluted with the solvent/emulsifier/water mixture described to give the concentration of active compounds stated below.
Leaves of potted barley seedlings were sprayed to runoff point with an aqueous suspension having the active compound concentration stated below. 24 hours after the spray coating had dried on, the test plants were inoculated with an aqueous spore suspension of Pyrenophora [syn. Drechslera] teres, the net blotch pathogen. The test plants were then placed in a greenhouse at temperatures between 20 and 24° C. and at 95 to 100% relative atmospheric humidity. After 6 days, the extent of the development of the disease was determined visually in % infection of the entire leaf area.

[2] = system: Sphaerotheca fuliginea; assay: Activity against mildew on cucumber leaves caused by Sphaerotheca fuliginea, protective application (Sphrfu P1), greenhouse; format: in vivo; settings: Comparative Example 1, Table 9, cucumber seedlings, 7 days, untreated 90
Method: as §1
Leaves of potted cucumber seedlings were, at the cotyledon stage, sprayed to runoff point with an aqueous suspension having the active compound concentration stated below. 20 hours after the spray coating had dried on, the plants were inoculated with an aqueous spore suspension of mildew of cucumber (Sphaerotheca fuliginea). The plants were then cultivated in a greenhouse at temperatures between 20 and 24° C. and 60 to 80% relative atmospheric humidity for 7 days. The extent of the mildew development was then determined visually in % infection of the cotyledon area.

| Compound | Infection in % at 4 ppm for Pyrnte P1 [1] [%] | Infection in % at 63 ppm for Sphrfu P1 [2] [%] |
| --- | --- | --- |
| Fc1cc(F)c([C@@]2(Cn3cncn3)O[C@@H]2c2ccccc2Cl)cc1F (racemic) [Compound 8.6] | 40 | – |
| Cc1ccccc1[C@H]1O[C@]1(Cn1cncn1)c1cc(F)c(F)cc1F (racemic) [Compound 8.7] | – | 0 |
| Cc1ccccc1[C@H]1O[C@]1(Cn1cncn1)c1ccc(F)cc1F [B 255 from EP-A 0 421 125] | – | 90 |
| Fc1ccc([C@@]2(Cn3cncn3)O[C@@H]2c2ccccc2Cl)cc1 [Comp. 8 of EP-A 0 196 038] | 90 | – |
